In patent US8722663B2, “Di-substituted pyridine derivatives as anticancers” (Otsuka Pharmaceutical Co., Ltd., priority 2010, dated 2014):
Counter-ions that a name gives are not always drawn.

Tests used:
[1] = test system: human hepatic cancer cell line (HuH-7); assay: Growth inhibition of HuH-7 cells, sulforhodamine B method; type: cell-based; settings: 5 days with test compound
Experimental: Growth inhibition of a human breast cancer cell line (MDA-MB-468) was determined by the sulforhodamine B method based on the method of Skehan P. et al. (J Natl Cancer Inst. 1990 Jul. 4; 82(13): 1107-12). In the study, MDA-MB-468 cells were seeded on DMEM medium containing 10% fetal bovine serum in a 96-well microplate. After 24-h incubation at 37° C. in the presence of 5% carbon dioxide, the test compound was added and the cells were incubated for another 5 days. After incubation, a trichloroacetic acid solution was added to yield the final concentration of 10% and the cells were left to stand at 4° C. for 1 hour to fix. Then, the cells were washed with water to remove the medium and trichloroacetic acid and dried in the air. The dried cells were stored at 4° C. until they were stained with sulforhodamine B. To each well, 1% acetic acid solution containing 0.4% sulforhodamine B was added and left to stand for 20 to 30 minutes at room temperature. After discarding the supernatant, each well was washed with 1% acetic acid solution, and 10 mM Tris([…]) solution was added while stirring to elute the dye taken into the cells. Then, the optical density was determined at the measurement wavelength of 492 nm and the reference wavelength of 690 nm, and the difference was calculated. The cell growth activity in each well was defined as the value determined by subtracting the OD in the control well not containing cells (the difference in absorbance between 492 nm and 690 nm) from that in the test well.
The 50% inhibitory concentration (IC50 (nM)) of the test compound was determined by comparing the cell growth activity in the well containing the test compound with that of the control not containing the test compound.
The growth inhibition on a human hepatic cancer cell line (HuH-7) was also determined by the above method.

Compound | IC50 ([1]; Homo sapiens, 120 h) [nM] | IC50 [1] [nM] | melting point [°C]
CCOc1ccc(OCCOc2ccc(CN3CCN(C(=O)/C=C/c4cc(C)c(Oc5ccc(OCc6ccc(C)cc6)cn5)c(Cl)c4)CC3)cc2)cc1 [Example 315, (E)-3-[3-Chloro-5-methyl-4-({5-[(4-methylbenzyl)oxy]pyridin-2-yl}oxy)phenyl]-1-(4-{4-[2-(4-ethoxyphenoxy)ethoxy]benzyl}piperazin-1-yl)prop-2-en-1-one] | < 10 |  | 
Cc1ccc(CN2CCN(C(=O)/C=C/c3cc(C)c(Oc4ccc(OCc5ccc(C(C)C)cc5)cn4)c(Cl)c3)CC2)cc1 [Example 358, (E)-3-{3-Chloro-5-methyl-4-[(5-{[4-(propan-2-yl)benzyl]oxy}pyridin-2-yl)oxy]phenyl}-1-[4-(4-methylbenzyl)piperazin-1-yl]prop-2-en-1-one] | < 10 |  | 
Cc1cc(/C=C/C(=O)N2CCN(Cc3ccc(CCOCc4ccc(Cl)cc4)cc3)CC2)cc(C)c1Oc1ccc(OCc2ccncc2)cn1 [Example 384, (E)-1-[4-(4-{2-[(4-chlorobenzyl)oxy]ethyl}benzyl)piperazin-1-yl]-3-(3,5-dimethyl-4-{[5-(pyridin-4-ylmethoxy)pyridin-2-yl]oxy}phenyl)prop-2-en-1-one] | < 10 |  | 
C=Cc1ccc(CN2CCN(C(=O)/C=C/c3cc(C)c(Oc4ccc(OCc5ccccc5Cl)cn4)c(Cl)c3)CC2)cc1 [Example 391, (E)-3-[3-chloro-4-({5-[(2-chlorobenzyl)oxy]pyridin-2-yl}oxy)-5-methylphenyl]-1-[4-(4-ethenylbenzyl)-piperazin-1-yl]prop-2-en-1-one] | < 10 |  | 
COc1ccc(OCCc2ccc(CN3CCN(C(=O)/C=C/c4cc(C)c(Oc5ccc(OCc6ccc(C#N)cc6)cn5)c(C)c4)CCO3)cc2)cc1 [Example 402, 4-{[(6-{4-[(E)-3-(2-{4-[2-(4-Methoxyphenoxy)ethyl]benzyl}-1,2,5-oxadiazepan-5-yl)-3-oxoprop-1-en-1-yl]-2,6-dimethylphenoxy}pyridin-3-yl)oxy]methyl}benzonitrile] | < 10 |  | 
Cc1ccc(OC/C=C/c2ccc(CN3CCN(C(=O)/C=C/c4cc(C)c(Oc5ccc(OCc6ccc(F)cc6)cn5)c(C)c4)CC3)cc2C)cc1 [Example 407, (2E)-3-[4-({5-[(4-fluorobenzyl)oxy]pyridin-2-yl}oxy)-3,5-dimethylphenyl]-1-(4-{3-methyl-4-[(1E)-3-(4-methylphenoxy)prop-1-en-1-yl]benzyl}piperazin-1-yl)prop-2-en-1-one] | < 10 |  | 
COc1ccc(OCCc2ccc(CN3CCN(C(=O)/C=C/c4cc(C)c(Oc5ccc(OCc6ccc(C)c(F)c6)cn5)c(Cl)c4)CC3)cc2)cc1 [Example 428, (E)-3-[3-Chloro-4-({5-[3-fluoro-4-methylbenzyl)oxy]pyridin-2-yl}oxy)-5-methylphenyl]-1-(4-{4-[2-(4-methoxyphenoxy)ethyl]benzyl}piperazin-1-yl)prop-2-en-1-one hydrochloride] |  | < 10 | 
Cc1cc(/C=C/C(=O)N2CCN(Cc3ccc(CCOc4ccc(C(C)C)cc4)cc3)CC2)cc(Cl)c1Oc1ccc(OCc2ccc(Cl)nc2)cn1.Cl [Example 443, (E)-3-[3-Chloro-4-({5-[(6-chloropyridin-3-yl)methoxy]pyridin-2-yl}oxy)-5-methylphenyl]-1-[4-(4-{2-[4-(propan-2-yl)phenoxy]ethyl}benzyl)piperazin-1-yl]prop-2-en-1-one hydrochloride] | < 10 |  | 214.8 to 215.3
Cc1cc(/C=C/C(=O)N2CCN(Cc3ccc(CCOc4ccc(C(C)C)cc4)cc3)CC2)cc(Cl)c1Oc1ccc(OCc2cccnc2)cn1.Cl [Example 445, (E)-3-(3-Chloro-5-methyl-4-{[5-(pyridin-3-ylmethoxy)pyridin-2-yl]oxy}phenyl)-1-[4-(4-{2-[4-(propan-2-yl)phenoxy]ethyl}benzyl)piperazin-1-yl]prop-2-en-1-one hydrochloride] | < 10 |  | 166.4 to 167.7
Cc1cc(/C=C/C(=O)N2CCN(Cc3ccc(CCOc4ccc(F)cc4)cc3)CC2)cc(Cl)c1Oc1ccc(OCc2ccccc2Cl)cn1.Cl [Example 449, (E)-3-[3-Chloro-4-({5-[(2-chlorobenzyl)oxy]pyridin-2-yl}oxy)-5-methylphenyl]-1-(4-{4-[2-(4-fluorophenoxy)ethyl]benzyl}piperazin-1-yl)prop-2-en-1-one hydrochloride] | < 10 |  | 211.9 to 214
COc1cc(/C=C/C(=O)N2CCN(Cc3ccc(CCOc4ccc(C)cc4)cc3)CC2)ccc1Oc1ccc(OCc2ccccc2Cl)cn1.Cl [Example 482, (E)-3-[4-({5-[(2-Chlorobenzyl)oxy]pyridin-2-yl}oxy)-3-methoxyphenyl]-1-(4-{4-[2-(4-methylphenoxy)ethyl]benzyl}piperazin-1-yl)prop-2-en-1-one hydrochloride] | < 10 |  | 203.4 to 205.7
CC(C)c1ccc(OCCc2ccc(CN3CCN(C(=O)c4ccc5cc(Oc6ccc(OCc7cccc(F)c7F)cn6)ccc5c4)CC3)cc2)cc1 [Example 542, [6-({5-[(2,3-Difluorobenzyl)oxy]pyridin-2-yl}oxy)naphthalen-2-yl][4-(4-{2-[4-(propan-2-yl)phenoxy]ethyl}benzyl)piperazin-1-yl]methanone hydrochloride] | < 10 |  | 
Cc1ccc(OCCc2ccc(CN3CCN(C(=O)/C=C/c4cc(C)c(Oc5ccc(OCc6cncs6)cn5)c(C)c4)CC3)cc2)cc1.Cl [Example 596, (E)-3-(3,5-Dimethyl-4-{[5-(1,3-thiazol-5-ylmethoxy)pyridin-2-yl]oxy}phenyl)-1-(4-{4-[2-(4-methylphenoxy)ethyl]benzyl}piperazin-1-yl)prop-2-en-1-one hydrochloride] | < 10 |  | 207 to 207.2
Cc1cc(/C=C/C(=O)N2CCN(Cc3ccc(COc4ccc(OC(C)C)cc4)cc3)CC2)cc(C)c1Oc1ccc(OCc2ccc(C#N)cc2)cn1.Cl [Example 647, 4-({[6-(2,6-Dimethyl-4-{(E)-3-oxo-3-[4-(4-{[4-(propan-2-yloxy)phenoxy]methyl}benzyl)-piperazin-1-yl]prop-1-en-1-yl}phenoxy)pyridin-3-yl]oxy}methyl)benzonitrile hydrochloride] | < 10 |  | 216.2 to 219.2
COc1ccc(Oc2ccc3cc(CN4CCN(C(=O)/C=C/c5cc(C)c(Oc6ccc(OCc7ccccc7Cl)cn6)c(Cl)c5)CC4)ccc3n2)cc1.Cl [Example 675, (E)-3-[3-Chloro-4-({5-[(2-chlorobenzyl)oxy]pyridin-2-yl}oxy)-5-methylphenyl]-1-(4-{[2-(4-methoxyphenoxy)quinolin-6-yl]methyl}piperazin-1-yl)prop-2-en-1-one hydrochloride] | < 10 |  | 228 to 228.9
COc1ccc(CCOc2ccc(CN3CCN(C(=O)/C=C/c4cc(C)c(Oc5ccc(OCc6ccc(C(F)(F)F)cc6)cn5)c(Cl)c4)CC3)cc2)cc1 [Example 688, (E)-3-{3-Chloro-5-methyl-4-[(5-{[4-(trifluoromethyl)benzyl]oxy}pyridin-2-yl)oxy]phenyl}-1-(4-{4-[2-(4-methoxyphenyl)ethoxy]benzyl}piperazin-1-yl)prop-2-en-1-one hydrochloride] | < 10 |  | 
